# Test results as given in US20260286573A1, “3D PRINTING ELECTROSPINNING SYSTEMS AND METHODS” (Board of Regents, The University of Texas System, priority 2023, published 2026).
# Experiment: Thermogravimetric analysis (TGA), thermal stability
# Format: physicochemical
# Settings: for decrease in mass, initial phase of TGA (surface-absorbed water): 10 °C/min, nitrogen
# Method: Thermogravimetric Analysis (TGA). FIG. 13 provides data showing thermogravimetric analysis (TGA) of raw materials and mixtures according to some examples. In some examples, the thermal properties of the raw materials and physical mixtures may be determined through a Mettler-Toledo TGA/DSC1 analyzer (Mettler-Toledo, Schwerzenbach, Switzerland). Sample raw materials and physical mixtures may be placed in an open ceramic crucible and ramped from 35° C. to 600° C. at a rate of 10° C./min. A furnace may be purged using ultra-purified nitrogen at a flow rate of 50 mL/min.
# Thermogravimetric analysis (TGA) was conducted to examine the degradation patterns and thermal stabilities of EPO, S100, CUR, RTV, and Xspin bi-fibers (FIG. 13). TGA measures the change in sample mass as a function of temperature using a thermobalance.
"weight loss, second phase of TGA (between 20° and 250° C.)",second weight loss (TGA) (between 30° and 395° C.),"decrease in mass, initial phase of TGA (surface-absorbed water)","weight loss, second phase of TGA (between 245 and 420° C.)",Compound
40%,~ 50%,no losses,–,"CC(C)c1nc(CN(C)C(=O)N[C@H](C(=O)N[C@@H](Cc2ccccc2)C[C@H](O)[C@H](Cc2ccccc2)NC(=O)OCc2cncs2)C(C)C)cs1 [RTV, Ritonavir]"
–,–,no losses,60%,"COc1cc(/C=C/C(=O)CC(=O)/C=C/c2ccc(O)c(OC)c2)ccc1O [CUR, Curcumin]"
